# Calls of active or inactive are those of the source. The calls are words filed in the database; no cut-off is given here.
# What was measured:
# Haemophilus influenzae [1] = assay: Antibacterial activity against 10^4 to 10^5 CFU Haemophilus influenzae after 18 hrs by CLSI 2-fold agar dilution method; format: functional
# Enterococcus = assay: Antibacterial activity against 10^4 to 10^5 CFU vancomycin-resistant Enterococcus after 18 hrs by CLSI 2-fold agar dilution method; format: functional
# Enterococcus faecium = assay: Antibacterial activity against 10^4 to 10^5 CFU Enterococcus faecium after 18 hrs by CLSI 2-fold agar dilution method; format: functional
# Enterococcus faecalis [2] = assay: Antibacterial activity against 10^4 to 10^5 CFU Enterococcus faecalis after 18 hrs by CLSI 2-fold agar dilution method; format: functional
# Streptococcus pyogenes = assay: Antibacterial activity against 10^4 to 10^5 CFU Streptococcus pyogenes after 18 hrs by CLSI 2-fold agar dilution method; format: functional
# Staphylococcus [3] = assay: Antibacterial activity against 10^4 to 10^5 CFU methicillin-resistant coagulase-negative Staphylococcus after 18 hrs by CLSI 2-fold agar dilution method; format: functional
# Streptococcus pneumoniae [4] = assay: Antibacterial activity against 10^4 to 10^5 CFU Streptococcus pneumoniae after 18 hrs by CLSI 2-fold agar dilution method; format: functional
# Staphylococcus [5] = assay: Antibacterial activity against 10^4 to 10^5 CFU methicillin-susceptible coagulase-negative Staphylococcus after 18 hrs by CLSI 2-fold agar dilution method; format: functional
# Staphylococcus aureus [6] = assay: Antibacterial activity against 10^4 to 10^5 CFU methicillin-resistant Staphylococcus aureus after 18 hrs by CLSI 2-fold agar dilution method; format: functional
# Staphylococcus aureus [7] = assay: Antibacterial activity against 10^4 to 10^5 CFU methicillin-susceptible Staphylococcus aureus after 18 hrs by CLSI 2-fold agar dilution method; format: functional
# Moraxella catarrhalis = assay: Antibacterial activity against 10^4 to 10^5 CFU Moraxella catarrhalis after 18 hrs by CLSI 2-fold agar dilution method; format: functional
# Haemophilus influenzae [8] = assay: Antibacterial activity against 7.5 x 10^8 CFU Haemophilus influenzae hd2 infected in ICR mouse systemic infection model assessed as mouse protection administered orally twice after 1 and 4 hrs post infection measured after 48 hrs; format: functional
# Staphylococcus aureus [9] = assay: Antibacterial activity against methicillin-susceptible Staphylococcus aureus Giorgio assessed as bacterial regrowth at 4 times MIC after 24 hrs by […] method; format: functional, organism-based
# Staphylococcus aureus [10] = assay: Antibacterial activity against methicillin-resistant Staphylococcus aureus p125 assessed as bacteriostatic at 8 times MIC after 24 hrs by […] method; format: functional, organism-based
# Staphylococcus aureus [11] = assay: Antibacterial activity against methicillin-susceptible Staphylococcus aureus Giorgio assessed as bacteriostatic at 8 times MIC after 24 hrs by […] method; format: functional, organism-based
# Staphylococcus aureus [12] = assay: Antibacterial activity against methicillin-resistant Staphylococcus aureus p125 assessed as bacteriostatic at 4 times MIC after 24 hrs by […] method; format: functional, organism-based
# Staphylococcus aureus [13] = assay: Antibacterial activity against methicillin-susceptible Staphylococcus aureus Giorgio assessed as bacteriostatic at 4 times MIC after 24 hrs by […] method; format: functional, organism-based
# Staphylococcus aureus [14] = assay: Antibacterial activity against methicillin-resistant Staphylococcus aureus p125 assessed as bacteriostatic at 2 times MIC after 24 hrs by […] method; format: functional, organism-based
# Staphylococcus aureus [15] = assay: Antibacterial activity against methicillin-susceptible Staphylococcus aureus Giorgio assessed as bacteriostatic at 2 times MIC after 24 hrs by […] method; format: functional, organism-based
# Staphylococcus aureus [16] = assay: Antibacterial activity against methicillin-resistant Staphylococcus aureus p125 assessed as bacteriostatic at MIC after 24 hrs by […] method; format: functional, organism-based
# Staphylococcus aureus [17] = assay: Antibacterial activity against methicillin-susceptible Staphylococcus aureus Giorgio assessed as bacteriostatic at MIC after 24 hrs by […] method; format: functional, organism-based
# Haemophilus influenzae [18] = assay: Antibacterial activity against 7.5 x 10^8 CFU Haemophilus influenzae hd2 after 18 hrs by CLSI 2-fold agar dilution method; format: functional; details: hd2, 18 h
# Streptococcus pneumoniae [19] = assay: Antibacterial activity against 1 x 10^4 CFU Streptococcus pneumoniae ATCC 6305 after 18 hrs by CLSI 2-fold agar dilution method; format: functional; details: ATCC 6305, 18 h
# Enterococcus faecalis [20] = assay: Antibacterial activity against 2 x 10^8 CFU Enterococcus faecalis u810 after 18 hrs by CLSI 2-fold agar dilution method; format: functional; details: u810, 18 h
# Staphylococcus aureus [21] = assay: Antibacterial activity against 1 x 10^8 CFU methicillin-resistant Staphylococcus aureus p125 after 18 hrs by CLSI 2-fold agar dilution method; format: functional; details: p125, 18 h
# Staphylococcus aureus [22] = assay: Antibacterial activity against 1 x 10^7 CFU methicillin-susceptible Staphylococcus aureus Giorgio after 18 hrs by CLSI 2-fold agar dilution method; format: functional
# Staphylococcus aureus [23] = assay: Antibacterial activity against methicillin-resistant Staphylococcus aureus p125 assessed as bacterial regrowth at 4 times MIC after 24 hrs by […] method; format: functional, organism-based
# Staphylococcus aureus [24] = assay: Antibacterial activity against methicillin-susceptible Staphylococcus aureus Giorgio assessed as bacterial regrowth at 8 times MIC after 24 hrs by […] method; format: functional, organism-based
# Staphylococcus aureus [25] = assay: Antibacterial activity against methicillin-resistant Staphylococcus aureus p125 assessed as bacterial regrowth at 8 times MIC after 24 hrs by […] method; format: functional, organism-based
structure (smiles),measurement,setting,value
CN[C@H](CC(C)C)C(=O)N[C@H]1C(=O)N[C@@H](CC(N)=O)C(=O)N[C@H]2C(=O)N[C@H]3C(=O)N[C@H](C(=O)N[C@H](C(=O)O)c4cc(O)cc(O)c4-c4cc3ccc4O)[C@H](O)c3ccc(c(Cl)c3)Oc3cc2cc(c3O[C@@H]2O[C@H](CO)[C@@H](O)[C@H](O)[C@H]2O[C@H]2C[C@](C)(N)[C@H](O)[C@H](C)O2)Oc2ccc(cc2Cl)[C@H]1O [VANCOMYCIN],MIC50,Haemophilus influenzae [1],> 64 mg/L
same,MIC90,Haemophilus influenzae [1],> 64 mg/L
same,MIC50,Enterococcus,> 64 mg/L
same,MIC90,Enterococcus,> 64 mg/L
same,MIC50,Enterococcus faecium,1 mg/L
same,MIC90,Enterococcus faecium,2 mg/L
same,MIC50,Enterococcus faecalis [2],2 mg/L
same,MIC90,Enterococcus faecalis [2],4 mg/L
same,MIC50,Streptococcus pyogenes,1 mg/L
same,MIC90,Streptococcus pyogenes,1 mg/L
same,MIC50,Staphylococcus [3],2 mg/L
same,MIC90,Staphylococcus [3],2 mg/L
same,MIC50,Streptococcus pneumoniae [4],0.5 mg/L
same,MIC90,Streptococcus pneumoniae [4],1 mg/L
same,MIC50,Staphylococcus [5],2 mg/L
same,MIC90,Staphylococcus [5],4 mg/L
same,MIC50,Staphylococcus aureus [6],1 mg/L
same,MIC90,Staphylococcus aureus [6],2 mg/L
same,MIC50,Staphylococcus aureus [7],1 mg/L
same,MIC90,Staphylococcus aureus [7],1 mg/L
Cc1onc(-c2ccccc2)c1C(=O)N[C@@H]1C(=O)N2[C@@H]1SC(C)(C)[C@@H]2C(=O)O [OXACILLIN],MIC50,Haemophilus influenzae [1],< 0.008 mg/L
same,MIC90,Haemophilus influenzae [1],0.015 mg/L
same,MIC50,Moraxella catarrhalis,0.06 mg/L
same,MIC90,Moraxella catarrhalis,0.06 mg/L
same,MIC50,Enterococcus,> 64 mg/L
same,MIC90,Enterococcus,> 64 mg/L
same,MIC50,Enterococcus faecium,> 64 mg/L
same,MIC90,Enterococcus faecium,> 64 mg/L
same,MIC50,Enterococcus faecalis [2],16 mg/L
same,MIC90,Enterococcus faecalis [2],> 64 mg/L
same,MIC50,Streptococcus pyogenes,0.5 mg/L
same,MIC90,Streptococcus pyogenes,8 mg/L
same,MIC50,Staphylococcus [3],> 64 mg/L
same,MIC90,Staphylococcus [3],> 64 mg/L
same,MIC50,Streptococcus pneumoniae [4],8 mg/L
same,MIC90,Streptococcus pneumoniae [4],16 mg/L
same,MIC50,Staphylococcus [5],0.125 mg/L
same,MIC90,Staphylococcus [5],1 mg/L
same,MIC50,Staphylococcus aureus [6],> 64 mg/L
same,MIC90,Staphylococcus aureus [6],> 64 mg/L
same,MIC50,Staphylococcus aureus [7],0.25 mg/L
same,MIC90,Staphylococcus aureus [7],0.5 mg/L
CO/N=C1\CN(c2nc3c(cc2F)c(=O)c(C(=O)O)cn3C2CC2)CC1CN (stereo not given) [GEMIFLOXACIN],MIC,Haemophilus influenzae [1],0.008 mg/L
same,MIC50,Haemophilus influenzae [1],0.008 mg/L
same,MIC90,Haemophilus influenzae [1],0.008 mg/L
same,MIC50,Moraxella catarrhalis,< 0.008 mg/L
same,MIC90,Moraxella catarrhalis,< 0.008 mg/L
same,MIC50,Enterococcus,0.5 mg/L
same,MIC90,Enterococcus,2 mg/L
same,MIC50,Enterococcus faecium,2 mg/L
same,MIC90,Enterococcus faecium,16 mg/L
same,MIC50,Enterococcus faecalis [2],0.125 mg/L
same,MIC90,Enterococcus faecalis [2],4 mg/L
same,MIC50,Streptococcus pyogenes,0.03 mg/L
same,MIC90,Streptococcus pyogenes,0.06 mg/L
same,MIC50,Staphylococcus [3],0.5 mg/L
same,MIC90,Staphylococcus [3],1 mg/L
same,MIC50,Streptococcus pneumoniae [4],0.03 mg/L
same,MIC90,Streptococcus pneumoniae [4],0.06 mg/L
same,MIC50,Staphylococcus [5],0.015 mg/L
same,MIC90,Staphylococcus [5],0.5 mg/L
same,MIC50,Staphylococcus aureus [6],2 mg/L
same,MIC90,Staphylococcus aureus [6],64 mg/L
same,MIC50,Staphylococcus aureus [7],0.015 mg/L
same,MIC90,Staphylococcus aureus [7],0.06 mg/L
CC[C@H]1OC(=O)[C@H](C)[C@@H](O[C@H]2C[C@@](C)(OC)[C@@H](O)[C@H](C)O2)[C@H](C)[C@@H](O[C@@H]2O[C@H](C)C[C@H](N(C)C)[C@H]2O)[C@](C)(O)C[C@@H](C)C(=O)[C@H](C)[C@@H](O)[C@]1(C)O [ERYTHROMYCIN],MIC,Haemophilus influenzae [1],64 mg/L
same,MIC50,Haemophilus influenzae [1],64 mg/L
same,MIC90,Haemophilus influenzae [1],> 64 mg/L
same,MIC50,Enterococcus,> 64 mg/L
same,MIC90,Enterococcus,> 64 mg/L
same,MIC50,Enterococcus faecium,> 64 mg/L
same,MIC90,Enterococcus faecium,> 64 mg/L
same,MIC50,Enterococcus faecalis [2],> 64 mg/L
same,MIC90,Enterococcus faecalis [2],> 64 mg/L
same,MIC50,Streptococcus pyogenes,0.06 mg/L
same,MIC90,Streptococcus pyogenes,2 mg/L
same,MIC50,Staphylococcus [3],> 64 mg/L
same,MIC50,Streptococcus pneumoniae [4],64 mg/L
same,MIC90,Streptococcus pneumoniae [4],> 64 mg/L
same,MIC50,Staphylococcus [5],0.25 mg/L
same,MIC90,Staphylococcus [5],> 64 mg/L
same,MIC50,Staphylococcus aureus [6],> 64 mg/L
same,MIC50,Staphylococcus aureus [7],0.25 mg/L
same,MIC90,Staphylococcus aureus [7],> 64 mg/L
CC(=O)NC[C@H]1CN(c2ccc(N3CCOCC3)c(F)c2)C(=O)O1 [LINEZOLID],MIC,Haemophilus influenzae [8],16 mg/L
same,MIC50,Moraxella catarrhalis,8 mg/L
same,MIC90,Moraxella catarrhalis,16 mg/L
same,MIC,Enterococcus,2 mg/L
same,MIC50,Enterococcus,2 mg/L
same,MIC90,Enterococcus,2 mg/L
same,MIC50,Enterococcus faecium,2 mg/L
same,MIC90,Enterococcus faecium,2 mg/L
same,MIC50,Enterococcus faecalis [2],2 mg/L
same,MIC90,Enterococcus faecalis [2],2 mg/L
same,MIC50,Streptococcus pyogenes,2 mg/L
same,MIC90,Streptococcus pyogenes,2 mg/L
same,MIC,Staphylococcus [3],1 mg/L
same,MIC50,Staphylococcus [3],1 mg/L
same,MIC90,Staphylococcus [3],1 mg/L
same,MIC50,Streptococcus pneumoniae [4],1 mg/L
same,MIC90,Streptococcus pneumoniae [4],1 mg/L
same,MIC,Staphylococcus [5],1 mg/L
same,MIC50,Staphylococcus [5],1 mg/L
same,MIC90,Staphylococcus [5],2 mg/L
same,MIC50,Staphylococcus aureus [6],2 mg/L
same,MIC90,Staphylococcus aureus [6],2 mg/L
same,MIC50,Staphylococcus aureus [7],2 mg/L
same,MIC90,Staphylococcus aureus [7],2 mg/L
CN1CCN(c2ccc(N3C[C@H](CO)OC3=O)cc2F)C=N1 [DELPAZOLID],Activity,Staphylococcus aureus [9],Active
same,Activity,Staphylococcus aureus [10],Active
same,Activity,Staphylococcus aureus [11],Active
same,Activity,Staphylococcus aureus [12],Active
same,Activity,Staphylococcus aureus [13],Active
same,Activity,Staphylococcus aureus [14],Active
same,Activity,Staphylococcus aureus [15],Active
same,Activity,Staphylococcus aureus [16],Active
same,Activity,Staphylococcus aureus [17],Active
same,MIC,Haemophilus influenzae [18],8 mg/L
same,MIC,Streptococcus pneumoniae [19],0.5 mg/L
same,MIC,Enterococcus faecalis [20],2 mg/L
same,MIC,Staphylococcus aureus [21],1 mg/L
same,MIC,Staphylococcus aureus [22],1 mg/L
same,MIC50,Haemophilus influenzae [1],8 mg/L
same,MIC90,Haemophilus influenzae [1],8 mg/L
same,MIC50,Moraxella catarrhalis,4 mg/L
same,MIC90,Moraxella catarrhalis,8 mg/L
same,MIC,Enterococcus,1 mg/L
same,MIC50,Enterococcus,1 mg/L
same,MIC90,Enterococcus,1 mg/L
same,MIC50,Enterococcus faecium,2 mg/L
same,MIC90,Enterococcus faecium,2 mg/L
same,MIC50,Enterococcus faecalis [2],2 mg/L
same,MIC90,Enterococcus faecalis [2],2 mg/L
same,MIC50,Streptococcus pyogenes,1 mg/L
same,MIC90,Streptococcus pyogenes,2 mg/L
same,MIC,Staphylococcus [3],0.5 mg/L
same,MIC50,Staphylococcus [3],0.5 mg/L
same,MIC90,Staphylococcus [3],0.5 mg/L
same,MIC50,Streptococcus pneumoniae [4],0.5 mg/L
same,MIC90,Streptococcus pneumoniae [4],1 mg/L
same,MIC,Staphylococcus [5],0.5 mg/L
same,MIC50,Staphylococcus [5],0.5 mg/L
same,MIC90,Staphylococcus [5],0.5 mg/L
same,MIC50,Staphylococcus aureus [6],1 mg/L
same,MIC90,Staphylococcus aureus [6],2 mg/L
same,MIC50,Staphylococcus aureus [7],1 mg/L
same,MIC90,Staphylococcus aureus [7],2 mg/L
same,Activity,Staphylococcus aureus [23],Active
same,Activity,Staphylococcus aureus [24],Active
same,Activity,Staphylococcus aureus [25],Active
